Measured values taken from patent US10399976B2, “Dihydropyrrolopyridine inhibitors of ROR-gamma” (Vitae Pharmaceuticals, LLC, priority 2014, dated 2019).
pIC50, pKi: −log10 of the molar value.

Assays:
[1] = target: recombinant RORγ Ligand Binding Domain (LBD) (Homo sapiens (Human), UniProt P51449); assay: Radio-Ligand RORγ Binding Assay (Assay 1); settings: cell-free competition with 25-hydroxy [26,27-3H]-cholesterol, SPA; read-out: RORγ Binding Ki Range*
Procedure: Radio-Ligand ROR ? Binding Assay (Assay 1)
Compounds of the present invention were tested for ability to bind to ROR ? in a cell-free competition assay with commercially available radio-ligand (RL), 25-hydroxy [26,27-^3H]-cholesterol (PerkinElmer, Cat. # NET674250UC), for a ligand binding site on a recombinant ROR ? Ligand Binding Domain (LBD) protein expressed as a 6×His-Glutathione-S-Transferase (GST) fusion. […] The plate was shaken at 700 rpm for 20 min and incubated for 10 min at rt, after which 40 μL of poly-Lys YSi SPA beads (PerkinElmer, Cat. # RPNQ0010) were added to achieve 50 μg of the beads per well. The plate was incubated on an orbital shaker for 20 min and then for 10 min without agitation at rt. SPA signal for tritium beta radiation was registered on PerkinElmer Microbeta plate reader. […] The percent inhibition vs. concentration data were fit into a four-parameter model, and IC50 values were calculated from the fit as the concentrations corresponding to the inflection points on the dose-response curves.

[2] = target: full-length RORγt in Jurkat cells (Homo sapiens (Human), UniProt P51449); assay: RORγt 5×RORE Assay in Jurkat Cells (Assay 2); assay type: cell-based; settings: Nanoluc luciferase reporter, 16-18 hrs, read-out: RORγt5X IC50 Range*
Chain of full-length RORγt in Jurkat cells (P51449 other isoform, or with tags, fused parts or gaps): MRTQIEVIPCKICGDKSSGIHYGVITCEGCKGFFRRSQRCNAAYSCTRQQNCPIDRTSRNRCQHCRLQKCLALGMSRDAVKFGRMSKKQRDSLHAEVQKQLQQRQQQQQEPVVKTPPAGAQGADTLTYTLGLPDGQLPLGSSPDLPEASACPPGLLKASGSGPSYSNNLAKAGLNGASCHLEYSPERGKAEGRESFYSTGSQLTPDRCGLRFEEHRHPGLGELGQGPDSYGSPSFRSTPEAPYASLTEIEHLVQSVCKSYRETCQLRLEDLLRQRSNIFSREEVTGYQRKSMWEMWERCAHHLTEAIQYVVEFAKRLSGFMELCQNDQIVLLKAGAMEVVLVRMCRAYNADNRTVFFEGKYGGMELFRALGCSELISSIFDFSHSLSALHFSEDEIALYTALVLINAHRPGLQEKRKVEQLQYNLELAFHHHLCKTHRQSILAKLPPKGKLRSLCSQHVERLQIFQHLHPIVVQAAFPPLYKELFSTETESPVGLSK
Procedure: [formula] ROR ? t 5×RORE Assay in Jurkat Cells (Assay 2)
Compounds of the present invention were tested for ROR ? inverse agonist activity in a cell-based, transcriptional activity assay. […] (Promega, Cat. # N1021) using KpnI and HindIII restriction sites. […] Luciferase activity in the conditioned supernatants was determined with NanoGlo® assay reagents (Promega, Cat.# N1130).

Chain of recombinant RORγ Ligand Binding Domain (LBD) (P51449 269-508): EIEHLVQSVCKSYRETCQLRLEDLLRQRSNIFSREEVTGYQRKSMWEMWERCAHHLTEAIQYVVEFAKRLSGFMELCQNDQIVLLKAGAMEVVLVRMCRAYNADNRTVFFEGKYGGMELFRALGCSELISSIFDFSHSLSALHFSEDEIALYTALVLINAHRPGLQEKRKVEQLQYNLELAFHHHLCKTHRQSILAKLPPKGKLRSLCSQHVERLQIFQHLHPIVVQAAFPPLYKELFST

SMILES	pKi [1]	pIC50 [2]
CC(C)[C@H]1c2ncc(C(=O)NCc3cnn(C)c3)cc2CN1Cc1ccc(C(F)(F)F)cc1 [Compound 76]	6.00 to 7.00	
CC(C)[C@H]1c2ncc(C(=O)NCc3ccnn3C)cc2CN1Cc1ccc(C(F)(F)F)cc1 [Compound 73]	< 6.00	
CCS(=O)(=O)n1cc(CNC(=O)c2cnc3c(c2)CN(Cc2ccc(C(F)(F)F)cc2)[C@H]3C(C)C)cn1 [Compound 133]	> 7.00	6.00 to 7.00
